The values that follow come from US20240358701A1, “PHARMACEUTICAL COMPOSITIONS AND COMBINATIONS COMPRISING INHIBITORS OF THE ANDROGEN RECEPTOR AND USES THEREOF” (ESSA Pharma Inc., priority 2021, published 2024).

Like-named read-outs stand apart in the source and are kept apart here.

The nature of data set [1]: Phase 1 dose escalation (Example 3): PK evaluation / drug-drug interaction. It counts as in vivo, human. To be noted: for exposure under drug-drug interaction with a concomitant medication (strong CYP3A inducer): discontinued at end of cycle 2; for AUC: human, plasma, oral, 600 mg QD, read-out: AUCss for Compound A. The method, then: Phase 1 of the study is a single-arm dose escalation study of Compound A in combination with a fixed dose of enzalutamide (120 mg/day). This portion of the study primarily evaluates the safety and tolerability of the drug combination and establishes the RP2CD for Compound A and enzalutamide when dosed in combination. In addition, blood sampling will be conducted for PK evaluation to assess the potential drug-drug interaction (DDI) between the two drugs.
In the Phase 1 part of the study each dose cohort will receive a 7-day run-in with single agent Compound A to establish steady-state concentrations of this drug at that dose level, followed by 28-day cycles of the combination Compound A with enzalutamide. Subjects may remain on study treatment as long as they are tolerating treatment without disease progression based on Response Evaluation Criteria in Solid Tumors (RECIST) v1.1 or based on Prostate Cancer Working Group 3 (PCWG3) criteria. A 30-day End of Treatment Visit will be conducted 30 days from the date of the last dose.
For Cohort 1, subjects (n=3) were orally administered 600 mg QD (once a day) of Compound A alone for 7 days then administered 600 mg QD Compound A in combination with 120 mg QD enzalutamide for at least one cycle (e.g., 28 days). Two subjects received the combination of Compound A and enzalutamide for at least 4 cycles (e.g., 16 weeks).
The plasma concentration data for Compound A, enzalutamide, N-desmethylated enzalutamide (M2; active metabolite) will be analyzed using non-compartmental methods to obtain estimates of standard PK parameters.
PK parameters of Compound A following multiple dosing including but not limited to plasma area under the concentration-time curve from time zero to 24 hours (AUC0-24), maximum concentration (Cmax), observed pre-dose plasma concentration during multiple dosing (Ctrough), time to reach Cmax (Tmax), apparent terminal elimination half-life (t½; whenever feasible to calculate), apparent volume of distribution at steady state after extravascular administration (Vss/F), apparent clearance after extravascular administration (CL/F).
PK parameters of enzalutamide and its primary active metabolite following multiple dosing including but not limited to AUC0-24, Cmax, Ctrough, Tmax, t½ (whenever feasible to calculate), Vss/F, CL/F.

The conditions of data set [2]: enzalutamide monotherapy, cited from earlier work.
Where [3] appears, read: Cohort 1: 600 mg QD Compound A + 120 mg QD enzalutamide.

For `CC(C)(c1ccc(OCc2ccnc(NS(C)(=O)=O)n2)cc1)c1cc(Cl)c(OCCCl)c(C#N)c1` [Compound A, N-(4-((4-(2-(3-chloro-4-(2-chloroethoxy)-5-cyanophenyl)propan-2-yl)phenoxy)methyl)pyrimidin-2-yl)methanesulfonamide], the “exposure under drug-drug interaction with a concomitant medication (strong CYP3A inducer)” value in data set [1] (Cohort 1, third subject) is recorded as “significant decrease in exposure”. Also, the “Compound A exposure, impact of enzalutamide” value in data set [1] (setting [3]) is “impacted by enzalutamide with higher metabolism of Compound A observed”. The AUC in data set [1] (Cohort 1, first subject, no prior chemotherapy (FIG. 1A)) was roughly 235000 ng·h/mL; in data set [1] (Cohort 1, second subject, prior chemotherapy (FIG. 1B)) it was roughly 62000 ng·h/mL; in data set [1] (Cohort 1, third subject, prior chemotherapy, concomitant strong CYP3A inducer (FIG. 1C)), roughly 33000 ng·h/mL.

`CNC(=O)c1ccc(N2C(=S)N(c3ccc(C#N)c(C(F)(F)F)c3)C(=O)C2(C)C)cc1F` [enzalutamide, reference compound]: the “exposure under drug-drug interaction with a concomitant medication (strong CYP3A inducer)” value in data set [1] (Cohort 1, third subject) is recorded as “significant decrease in exposure”. Moreover, the “enzalutamide exposure, impact of Compound A administration” value in data set [1] (setting [3]) was “only minimally impacted”. Also, the “90 day confirmed PSA<0.2 ng/mL rate” value in data set [2] (post-chemotherapy population) is on record as 1%; in data set [2] (pre-chemotherapy population), 5%.
